Measured values taken from patent US20200017496A1 (priority 2017, published 2020).
Like-named read-outs stand apart in the source and are kept apart here.

Assays:
Experiment in all cases: MIC of compounds alone and combined with antibacterials, broth microdilution (CLSI)
Type in all cases: cell-based
[1] = test system: Enterobacter aerogenes (EAE) isolates
Method: (§1) Method 2: MIC of Compounds Alone and Combined with Antibacterials Against Bacterial Isolates.
(§2) Compounds of the present invention were assessed against genotyped bacterial strains (Table 3, 4) alone or in combination with an antibacterial (Table 2). […] Log phase bacterial suspensions were adjusted to a final density of 5·10^5 CFU/mL in cation-adjusted Mueller-Hinton broth (ca-MHB; Becton-Dickinson and Company) and added to each well (98 μL). Microplates were incubated for 16-20 h at 35° C. in ambient air. The MIC of the compounds was defined as the lowest concentration of said compounds that prevented bacterial growth as read by visual inspection. The MIC of ATB at each compound concentration was defined as the lowest concentration of ATB that prevented bacterial growth as read by visual inspection.

[2] = test system: Escherichia coli (ECO) isolates; conditions: for MIC: Escherichia coli
Method: as §1, §2

[3] = test system: Providencia rettgeri (PRE) isolates; conditions: for MIC: Providencia rettgeri
Method: as §1, §2

[4] = test system: Providencia stuartii (PST) isolates; conditions: for MIC ATB in combination: AF1 @ 4 μg/mL
Method: as §1, §2

[5] = test system: Salmonella typhimurium (STY) isolates; conditions: for MIC: Salmonella enterica, TYPHIMURIUM, strain STY S3371 (OXA-1)
Method: as §1, §2

Structure (SMILES): CC1(C)S[C@@H]2[C@H](NC(=O)[C@H](N)c3ccc(O)cc3)C(=O)N2[C@H]1C(=O)O [AMX, Amoxicillin]
- MIC [1]: >256 µg/mL
- MIC ATB in combination [1]: 128 µg/mL
- MIC ATB in combination ([1]; EAE UFR199, AF1 @ 4 μg/mL): 64 µg/mL
- MIC ATB in combination ([1]; EAE UFR201, AF1 @ 4 μg/mL): <=1 μg/mL
- MIC ATB in combination ([1]; EAE UFR202, AF1 @ 4 μg/mL): 64 µg/mL
- MIC ATB in combination ([1]; EAE UFR213, AF1 @ 4 μg/mL): 32 µg/mL
- MIC ([1]; Klebsiella aerogenes): > 128 µg/mL
- MIC ([1]; Klebsiella aerogenes, strain EAE 49469 (AmpC), ATB alone, read-out: MIC): > 1020 µg/mL
- MIC ([1]; Klebsiella aerogenes, strain EAE UFR201 (TEM-1, SHV-12, CTX-M-15), CLA @ 4 μg/ml+ ATB, read-out: MIC): 16 µg/mL
- MIC ATB in combination [2]: 128 µg/mL
- MIC ATB in combination ([2]; ECO 5302, AF1 @ 4 μg/mL): 256 µg/mL
- MIC ATB in combination ([2]; ECO 131119, AF1 @ 4 μg/mL): 16 µg/mL
- MIC ATB in combination ([2]; ECO 180070, AF1 @ 4 μg/mL): <=1 μg/mL
- MIC ATB in combination ([2]; ECO 190314, AF1 @ 4 μg/mL): <=1 μg/mL
- MIC ATB in combination ([2]; ECO 190317, AF1 @ 4 μg/mL): 64 µg/mL
- MIC ATB in combination ([2]; ECO 190457, AF1 @ 4 μg/mL): 64 µg/mL
- MIC ATB in combination ([2]; ECO 190549, AF1 @ 4 μg/mL): <=1 μg/mL
- MIC ATB in combination ([2]; ECO 200159, AF1 @ 4 μg/mL): <=1 μg/mL
- MIC ATB in combination ([2]; ECO 200259, AF1 @ 4 μg/mL): <=1 μg/mL
- MIC ATB in combination ([2]; ECO 200344, AF1 @ 4 μg/mL): <=1 μg/mL
- MIC ATB in combination ([2]; ECO 260096, AF1 @ 4 μg/mL): <=1 μg/mL
- MIC ATB in combination ([2]; ECO 260304, AF1 @ 4 μg/mL): <=1 μg/mL
- MIC ATB in combination ([2]; ECO 260508, AF1 @ 4 μg/mL): 64 µg/mL
- MIC ATB in combination ([2]; ECO RGN238, AF1 @ 4 μg/mL): 256 µg/mL
- MIC ATB in combination ([2]; ECO UFR15, AF1 @ 4 μg/mL): 16 µg/mL
- MIC ATB in combination ([2]; ECO UFR18, AF1 @ 4 μg/mL): 64 µg/mL
- MIC ATB in combination ([2]; ECO UFR19, AF1 @ 4 μg/mL): 64 µg/mL
- MIC ATB in combination ([2]; ECO UFR61O, AF1 @ 4 μg/mL): 64 µg/mL
- MIC ATB in combination ([2]; ECO UFR62, AF1 @ 4 μg/mL): 16 µg/mL
- MIC ATB in combination ([2]; ECO UFR86, AF1 @ 4 μg/mL): 2 µg/mL
- MIC ATB in combination ([2]; ECO UFR174, AF1 @ 4 μg/mL): 32 µg/mL
- MIC ATB in combination ([2]; ECO UFR175, AF1 @ 4 μg/mL): 32 µg/mL
- MIC ATB in combination ([2]; ECO UFR176, AF1 @ 4 μg/mL): 32 µg/mL
- MIC ATB in combination ([2]; ECO UFR184, AF1 @ 4 μg/mL): 32 µg/mL
- MIC ATB in combination ([2]; ECO UFR185, AF1 @ 4 μg/mL): 256 µg/mL
- MIC ATB in combination ([2]; ECO UFR186, AF1 @ 4 μg/mL): 16 µg/mL
- MIC ATB in combination ([2]; ECO UFR187, AF1 @ 4 μg/mL): 16 µg/mL
- MIC ATB in combination ([2]; ECO UFR189, AF1 @ 4 μg/mL): 4 µg/mL
- MIC ATB in combination ([2]; ECO UFR190, AF1 @ 4 μg/mL): 8 µg/mL
- MIC ATB in combination ([2]; ECO UFR191, AF1 @ 4 μg/mL): 8 µg/mL
- MIC ATB in combination ([2]; ECO UFR207, AF1 @ 4 μg/mL): 32 µg/mL
- MIC ATB in combination ([2]; ECO UFR208, AF1 @ 4 μg/mL): 256 µg/mL
- MIC ATB in combination ([2]; ECO UFR209, AF1 @ 4 μg/mL): 4 µg/mL
- MIC ATB in combination ([2]; ECO UFR210, AF1 @ 4 μg/mL): <=1 μg/mL
- MIC ATB in combination ([2]; ECO UFR211, AF1 @ 4 μg/mL): <=1 μg/mL
- MIC ATB in combination ([2]; ECO UFR212, AF1 @ 4 μg/mL): 64 µg/mL
- MIC ATB in combination ([2]; ECO UFR218, AF1 @ 4 μg/mL): 8 µg/mL
- MIC ([2]; strain ECO 131119 (TEM-1, OXA-48), ATB alone): > 1020 µg/mL
- MIC ([2]; strain ECO 131119 (TEM-1, OXA-48), CLA @ 4 μg/ml+ ATB): > 512 µg/mL
- MIC ([2]; strain ECO 180070 (TEM-1, CTX-M-15), CLA @ 4 μg/ml+ ATB): 16 µg/mL
- MIC ([2]; strain ECO 190314 (CTX-M-1), CLA @ 4 μg/ml+ ATB): 8 µg/mL
- MIC ([2]; strain ECO 190317 (TEM-1, SHV-12, CTX-M-15, OXA-1), ATB alone): > 1020 µg/mL
- MIC ([2]; strain ECO 190317 (TEM-1, SHV-12, CTX-M-15, OXA-1), CLA @ 4 μg/ml+ ATB): 64 µg/mL
- MIC ([2]; strain ECO 190549 (CTX-M-1), CLA @ 4 μg/ml+ ATB): 8 µg/mL
- MIC ([2]; strain ECO 200159 (TEM-1, CTX-M-14), CLA @ 4 μg/ml+ ATB): 8 µg/mL
- MIC ([2]; strain ECO 200259 (CTX-M-14), CLA @ 4 μg/ml+ ATB): 8 µg/mL
- MIC ([2]; strain ECO 200344 (CTX-M-1), CLA @ 4 μg/ml+ ATB): 16 µg/mL
- MIC ([2]; strain ECO 260096 (CTX-M-132), CLA @ 4 μg/ml+ ATB): 4 µg/mL
- MIC ([2]; strain ECO 260304 (CTX-M-15), CLA @ 4 μg/ml+ ATB): 4 µg/mL
- MIC ([2]; strain ECO 260508 (TEM-1, CTX-M-15, OXA-1), CLA @ 4 μg/ml+ ATB): 64 µg/mL
- MIC ([2]; strain ECO RGN238 (OXA-1), ATB alone): > 1020 µg/mL
- MIC ([2]; strain ECO UFR207 (CTX-M-15), CLA @ 4 μg/ml+ ATB): 32 µg/mL
- MIC ([2]; strain ECO UFR209 (TEM-1, CTX-M-15), CLA @ 4 μg/ml+ ATB): 32 µg/mL
- MIC ([2]; strain ECO UFR210 (SHV-12), CLA @ 4 μg/ml+ ATB): 8 µg/mL
- MIC ([2]; strain ECO UFR211 (TEM-24), CLA @ 4 μg/ml+ ATB): 8 µg/mL
- MIC ([2]; strain ECO UFR218 (TEM-1, SHV-1, CTX-M-15), CLA @ 4 μg/ml+ ATB): 32 µg/mL
- MIC ATB in combination ([3]; PRE UFR99, AF1 @ 4 μg/mL): >512 µg/mL
- MIC ([3]; ATB combined with CLA @ 4 μg/ml, strain PRE UFR236 (TEM-1, OXA-48)): > 128 µg/mL
- MIC ([3]; strain PRE UFR99 (OXA-1, OXA-181), ATB alone): > 128 µg/mL
- MIC ([3]; strain PRE UFR99 (OXA-1, OXA-181), CLA @ 4 μg/ml+ ATB): > 128 µg/mL
- MIC ([3]; ATB alone, strain PRE UFR236 (TEM-1, OXA-48)): > 128 µg/mL
- MIC ATB in combination ([3]; strain PRE UFR236, antibacterial combined with AF1 @ 4 μg/mL): 512 µg/mL
- MIC [4]: 128 µg/mL
- MIC ATB in combination ([4]; PST UFR94): 16 µg/mL
- MIC ATB in combination ([4]; PST UFR95): 32 µg/mL
- MIC ATB in combination ([4]; PST UFR235): 32 µg/mL
- MIC ([4]; Providencia stuartii): > 128 µg/mL
- MIC ATB in combination [5]: 128 µg/mL
- MIC ([5]; ATB alone): > 256 µg/mL
- MIC ([5]; CLA @ 4 μg/ml+ ATB): 128 µg/mL
